Converted amounts (≈) assume the structure as drawn. “Also recorded” adds a separate entry of the source. Read-outs that look alike come from different tables or passages of the source.
Key:
WecA = conditions: cited from earlier work
[1] = molecular target: WecA enzyme (P-60 from E. coli B21WecA) (Escherichia coli, UniProt P0AC78); experiment: biochemical; format: biochemical
M. smegmatis WecA (P-60) = M. smegmatis WecA (P-60) (Mycolicibacterium smegmatis, UniProt A0R211); experiment: Kinetic parameter evaluation via WecA activity assay; format: biochemical; conditions: for Vmax for C50-P-P-Glucosamine-C6-FITC synthesis: crude membrane P-60, Michaelis-Menten plot
M. smegmatis WecA = molecular target: T1, M. smegmatis WecA (Mycolicibacterium smegmatis, UniProt A0R211); format: biochemical
T1 sequence (A0R211 1-406): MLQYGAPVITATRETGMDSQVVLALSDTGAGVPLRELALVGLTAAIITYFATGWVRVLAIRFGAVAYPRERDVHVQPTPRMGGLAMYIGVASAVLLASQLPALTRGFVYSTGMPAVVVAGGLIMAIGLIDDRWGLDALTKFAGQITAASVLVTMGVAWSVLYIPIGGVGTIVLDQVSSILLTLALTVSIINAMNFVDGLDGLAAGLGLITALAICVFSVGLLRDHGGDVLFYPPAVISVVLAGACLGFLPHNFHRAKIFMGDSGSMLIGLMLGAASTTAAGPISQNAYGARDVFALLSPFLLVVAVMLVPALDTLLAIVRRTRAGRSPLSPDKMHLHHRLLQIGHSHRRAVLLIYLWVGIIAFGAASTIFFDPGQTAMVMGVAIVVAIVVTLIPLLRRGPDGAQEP

M. tuberculosis = experiment: MIC determination against replicating Mtb; format: cell-based, Mycobacterium tuberculosis (H37Rv); conditions: aerobic
[2] = system: non-replicating Mtb H37Rv (pFCA-luxAB); format: cell-based, M. tuberculosis H37Rv; conditions: for MICLORA/MICMABA: ratio of LORA MIC to MABA MIC
non-replicating Mtb = experiment: Wayne model under low-oxygen conditions; format: cell-based
[3] = system: intracellular Mtb CDC1551-tdTomato in J774A.1 cells; experiment: Killing effect against intracellular M. tuberculosis in J774A.1 macrophages; format: cell-based
MurX = molecular target: T2, MurX (Mycolicibacterium smegmatis, UniProt A0R019); conditions: cited from earlier work
T2 sequence (A0R019 1-359): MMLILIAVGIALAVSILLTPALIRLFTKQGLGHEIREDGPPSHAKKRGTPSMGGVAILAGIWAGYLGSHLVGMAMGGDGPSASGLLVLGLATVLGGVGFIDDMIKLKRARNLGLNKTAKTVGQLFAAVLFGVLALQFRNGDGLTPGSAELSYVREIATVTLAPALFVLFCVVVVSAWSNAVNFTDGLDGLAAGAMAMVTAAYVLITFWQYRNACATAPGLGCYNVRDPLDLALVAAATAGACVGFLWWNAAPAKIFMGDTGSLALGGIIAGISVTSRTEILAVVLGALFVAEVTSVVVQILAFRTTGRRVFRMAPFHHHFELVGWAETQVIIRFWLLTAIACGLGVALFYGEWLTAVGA

## CCCCc1ccc(NC(=O)C2=CCN(C)[C@@H]([C@H](O[C@@H]3O[C@H](CN)[C@@H](O)[C@H]3O)[C@H]3O[C@@H](n4ccc(=O)[nH]c4=O)[C@H](O)[C@@H]3O)C(=O)N2C)cc1 [CPZEN-45]
WecA
  WecA inhibition: inhibit WecA at low concentrations

## CO[C@H]1[C@@H](O)[C@H](n2ccc(=O)[nH]c2=O)O[C@@H]1[C@@H](O[C@H]1OC(C(=O)N[C@H]2CCCCNC2=O)=C[C@H](O)[C@@H]1O)C(N)=O [Capuramycin (6), Capuramycin]
[1]; at 20 µg/mL
  WecA enzyme inhibitory activity: no WecA enzyme inhibitory activity
[1]; read-out: WecA inhibition (%)
  inhibition at 0.02 µg/mL: 0%
  inhibition at 2 µg/mL: 0%
  inhibition at 20 µg/mL: 0%

## CCCCCCCCCC(=O)O[C@@H]1[C@H](OC)[C@@H]([C@@H](O[C@H]2OC(C(=O)N[C@H]3CCC[C@@H](C)NC3=O)=C[C@H](O)[C@@H]2O)C(N)=O)O[C@H]1n1ccc(=O)[nH]c1=O [SQ641 (8)]
[1]
  WecA enzyme inhibitory activity: no WecA enzyme inhibitory activity

## CC(=O)N[C@H]1[C@@H](OP(=O)(O)OP(=O)(O)OC[C@H]2O[C@@H](n3ccc(=O)[nH]c3=O)[C@H](O)[C@@H]2O)O[C@H](CO)[C@@H](O)[C@@H]1O [UDP-GlcNAc]
M. smegmatis WecA (P-60); 140 µM exogenous decaprenyl phosphate (C50-P)
  Km: 110 µM

## COC1C(C(OC2OC(C(=O)NC3CCCCNC3=O)=CC(O)C2O)C(N)=O)OC(n2ccc(=O)[nH]c2=O)C1OC (centres unmarked) [UT-01320 (12)]
[1]
  WecA enzyme inhibitory activity: inhibited completely
  WecA inhibition (%) obtained via HPLC: 100 (100) %
M. smegmatis WecA
  IC50 against M. smegmatis wecA: 0.0507 µg/mL (≈ 0.0869 µM)
M. tuberculosis
  MIC (MABA), replicating Mtb: 1.5 µg/mL (≈ 2.57 µM)
[2]; low-oxygen conditions
  MIC (LORA), non-replicating Mtb: 2.58 µg/mL (≈ 4.42 µM)
[2]
  MICLORA/MICMABA: 1.72
non-replicating Mtb
  Effectiveness in non-replicating Mtb (Wayne model): confirmed
[3]; 2x and 4x MIC, up to 72h, J774A.1, listed as 12
  Bactericidal effect against intracellular Mtb (words, comparison with TB drugs): equal to those of capreomycin; also recorded: faster killing effect than rifampicin
[3]; x2 MICLORA, […]
  Time to kill Mtb in infected macrophages: ≤ 72 h
MurX; even at 400 µg/mL, as previously reported
  MurX enzyme inhibitory activity: did not exhibit MurX enzyme inhibitory activity

## CO[C@H]1/C=C/O[C@@]2(C)Oc3c(C)c(O)c4c(O)c(c(/C=N/N5CCN(C)CC5)c(O)c4c3C2=O)NC(=O)/C(C)=C\C=C\[C@H](C)[C@H](O)[C@@H](C)[C@@H](O)[C@@H](C)[C@H](OC(C)=O)[C@@H]1C [rifampicin, reference compound]
[2]
  MICLORA/MICMABA: 7.35

## Decaprenyl-P-P-Glucosamine-C6-FITC [C50-P-P-Glucosamine-C6-FITC (3)]
M. smegmatis WecA (P-60)
  Vmax for C50-P-P-Glucosamine-C6-FITC synthesis: 0.404 µM/min
M. smegmatis WecA (P-60); listed as C50-P-P-Glucosamine-C6-FITC
  Vmax for C50-P-P-Glucosamine-C6-FITC synthesis: 0.4041 µM/min

## Tunicamycin [Tunicamycin (5), reference compound]
M. smegmatis WecA; UV-Vis dose-response curve
  IC50 against M. smegmatis wecA: 0.59 µg/mL
MurX
  IC50 against MurX: 2.31 µg/mL

## UDP-Glucosamine-C6-FITC [UDP-Glucosamine-C6-FITC (1)]
M. smegmatis WecA (P-60); with undecaprenyl phosphate
  Km: 196 µM

Reference: PMC5012913 (Analytical biochemistry, 2016)
